This note sets out measurements from PMC5325331, “A steroid like phytochemical Antcin M is an anti-aging reagent that eliminates hyperglycemia-accelerated premature senescence in dermal fibroblasts by direct activation of Nrf2 and SIRT-1” (Oncotarget, 2016).

What all share (type): cell-based, human
Assay [1] deals with HNDFs. Kind of assay: Cell-cycle analysis by flow cytometry (PI) in HG-induced HNDFs. The conditions noted are these: ANM 10 μM with HG (30 mM) for 72 h; HG 71.2%, NG 46.5%. Here is the method: HNDFs at a density of 5 × 10^5 cells in 10 cm dishes were treated with ANM or NAC in the presence or absence of HG for 72 h. Cells were collected, washed with PBS and fixed in 95% cold-ethanol, and kept at −20°C overnight. The cell pellet was then washed again with PBS and centrifuged at 1500 × g for 5 min. The pellet was re-suspended in 1 mL PI/Triton X-100 (20 μg/mL PI, 0.1% Triton X-100 and 0.2 mg/mL RNAse) and incubated on ice for 30 min. The total cellular DNA content was analyzed with a flow cytometer (Beckman Coulter FC500). Data were acquired and analyzed using CXP software (Beckman Coulter).

Assay [2] deals with HNDFs. Kind of assay: Cytotoxicity of antcins against HNDFs (MTT assay). The conditions noted are these: Homo sapiens, 72 h, read-out: IC50 (50% inhibitory concentration) against HNDFs. Here is the method:
Figure 2 Effects of antcins on HG-induced senescence in HNDFs A. Type of antcins subjected to screen for potential anti-aging agents for skin aging. Names and chemical structures of the antcins are shown in the left and centrer column, respectively. The cytotoxic effects of antcins against HNDFs. Briefly, HNDFs were incubated with increasing concentrations (1, 5, 10 and 20 μM) of antcins including antcin A, antcin B, antcin C, antcin H, anticn K and antcin M for 72 h and the cell viability was determined by MTT assay. The 50% inhibitory concentrations (IC50) of each compound against HNDFs are shown in right column. B. Cells were incubated with antcin A (10 μM), antcin H (10 μM) and antcin M (10 μM) in the presence of HG (30 mM) for 72 h. Cellular senescence was determined by SA-β-gal activity. […] C. HNDFs were incubated with antcin A (10 μM), antcin H (10 μM) and antcin M (10 μM) in the presence of HG (30 mM) for 72 h. Senescence-associated marker proteins such as p16^INK4A, p21^CIP1 and SMP30 were determined by western blot analysis. D. To determine the effect of antcins on cell proliferation efficacy, HNDFs 5 × 10^4 cells/well in 6-well plates were incubated with antcins in the presence of HG (30 mM) for 72 h. Number of viable cells were quantified by the tryphan blue exclusion method. Results are expressed as mean ± S.E.M of three indipendent expriments. Statistical significance was et at ^ФP < 0.05 compared to NG vs HG and *P < 0.05 compared to HG vs. samples.
(§1) Human normal dermal fibroblasts (HNDFs, CCD966SK) and human umbilical vein endothelial cells (HUVECs) were obtained from the Bioresource Collection and Research Center (BCRC), Hsinchu, Taiwan. HNDFs were grown in MEM containing 10% FBS, 2 mM L-glutamine, 100 U/mL penicillin and streptomycin at 37°C in a fully humidified atmosphere of 5% CO2. Likewise, HUVECs were grown in M-199 medium supplemented with ECGS, heparin, 10% FBS and 100 U/mL penicillin and streptomycin at 37°C in a fully humidified atmosphere of 5% CO2. High-glucose treatment was performed by treating cells with 15 or 30 mM D-glucose (HG) for 24-72 h.
Cell viability was assessed by MTT colorimetric assay. Briefly, HNDFs (2 × 10^4 cells/well) or HUVECs (5 × 10^4 cells/well) were seeded in a 24-well culture plate. After treatment with HG (15 and 30 mM) in the presence or absence of samples for 24-72 h, culture media was withdrawn and incubated with MTT (1 mg/mL) in fresh medium for 2 h. The MTT formazan crystals were dissolved in 400 μL of DMSO and the samples were measured at 570 nm […] using an ELISA microplate reader (Bio-Tek Instruments, Winooski, VT). The percentage of cell viability (%) was calculated as (A570 of treated cells/A570 of untreated cells) × 100.

Assay [3] relates to HNDFs. Kind of assay: SA-β-gal senescence assay in HG-induced HNDFs. Here is the method: as §1
(§2) Senescence-associated β-galactosidase (SA-β-gal) activity was determined in formaldehyde-fixed histochemical staining kit according to the manufacturer's instructions (Cell Signaling Technology, Danvers, […]). Briefly, cells were grown in 6-well plates at a density of 5 × 10^4 cells/well, and incubated with HG or test samples for 48 h (HUVECs) or 72 h (HNDFs). After incubation, cells were stained with SA-β-gal staining solution at pH 6.0 overnight and then the development of blue staining was observed and photographed under a bright-field microscope (Motic Electric Group, Xiamen, P.R. China).

The test system of assay [4] is Nrf2 transcriptional activity (ARE promoter). In words: ARE luciferase reporter assay in HNDFs. The conditions noted are these: 6 h. The procedure:
ARE promoter activity was measured using a dual-luciferase reporter assay system (Promega, Madison, WI). […] Cells were then transfected with ARE plasmid (Qiagen, Hilden, Germany) using Lipofectamine 2000 (Invitrogen) and incubated for 36 h. […] The cell lysate was prepared and incubated with luciferase agents and the relative luminescence intensity was quantified using a spectrophotometer (Hidex Oy, Turku, Finland).

In assay [5] the test system is HUVECs. Kind of assay: SA-β-gal senescence assay in HG-treated HUVECs. The conditions noted are these: ANM 10 μM with HG (30 mM) for 48 h; HG alone 6.38-fold. Here is the method: as §2
Assay [6] deals with SIRT-1, SIRT-3 and SIRT-6 mRNA. In words: Q-PCR of SIRT genes in HNDFs. As to conditions: ANM 10 μM, 72 h. The procedure:
Total RNA was extracted from cultured HNDFs using Trizol Reagent (Thermo Fisher Scientific). Q-PCR analysis was performed using Applied Biosystems detection instruments and software. Forward and reverse primers (10 μM), and the working solution SYBR green, was used as a PCR master mix, under the following conditions: 96°C for 3 minutes followed by 40 cycles at 96°C for 1 minute, 50°C for 30 seconds and 72°C for 90 seconds. GAPDH was used as an internal standard to control for variability in amplification because of differences in starting mRNA concentrations. The copy number of each transcript was calculated as the relative copy number normalized by GAPDH copy number.

Consider `C=C(CCC(C)C1CCC2C3=C(C(=O)C(O)C21C)C1(C)CCC(O)C(C)C1CC3)C(C)C(=O)O` (centres unmarked) [ANM, antcin M], for which the “cell population in the G0/G1 phase” value in assay [1] was found to be 49.5%. Further, in assay [2], the IC50 is > 50 µM. The SA-β-gal positive cells in assay [3] (10 μM with HG (30 mM) for 72 h, HG alone 9.59-fold (Figure 2B)) turned out to be 1.51 fold; in assay [3] (ANM 10 μM with HG (30 mM) for 72 h, HG alone 5.72-fold (Figure 4B)) it was 1.89 fold. The ARE luciferase activity in assay [4] (ANM 10 μM or NAC 100 μM alone, control 1-fold) is 5.8 fold; in assay [4] (co-treated with HG (30 mM), ANM 10 μM or NAC 100 μM, HG alone 2.5-fold), 8.5 fold. Moreover, in assay [5], the “SA-β-gal staining (endothelial senescence)” value is 1.36 fold. Further, the “SIRT-1, SIRT-3 and SIRT-6 levels compared to the control group” value in assay [6] was “significantly increased”.
